Assay results from ChEMBL document CHEMBL4219254, “Harnessing biosynthesis and quantitative NMR for late stage functionalization of lead molecules: Application to the M1 positive allosteric modulator (PAM) program” (Bioorg Med Chem Lett, 2018).

Legend:
[1] = Permeability in RRCK cells; type: ADME, cell-based, Canis lupus familiaris, MDCKII-LE; conditions: dog, MDCK; read-out: permeability
[2] = Drug level in hamster liver microsomes treated with N-((3R,4S)-3-hydroxytetrahydro-2H-pyran-4-yl)-1-(4-(1-methyl-1H-pyrazol-3-yl)benzyl)-1H-pyrrolo[3,2-b]pyridine-3-carboxamide at 20 uM by UHPLC-UV-HRMS analysis; type: ADME, microsome; conditions: cricetinae
[3] = Drug metabolism in dexamethasone-induced rat liver microsomes assessed as formation of N-((3R,4S)-2,3-dihydroxytetrahydro-2H-pyran-4-yl)-5-methyl-4-(4-(thiazol-4-yl)benzyl)picolinamide at 20 uM after 60 mins by UHPLC-UV-HRMS analysis; type: ADME, microsome; conditions: 1 h
[4] = Drug metabolism in dexamethasone-induced rat liver microsomes assessed as formation of 4-(hydroxy(4-(thiazol-4-yl)phenyl)methyl)-N-((3R,4S)-3-hydroxytetrahydro-2H-pyran-4-yl)-5-methylpicolinamide at 20 uM after 60 mins by UHPLC-UV-HRMS analysis; type: ADME, microsome; conditions: 1 h
[5] = biological target: T1, Muscarinic acetylcholine receptor M1 (Homo sapiens, UniProt P11229); assay: Positive allosteric modulation of human muscarinic M1 receptor expressed in CHO cells assessed as increase in ACh-induced intracellular calcium level preincubated for 10 mins followed by ACh addition measured every 2 secs for 80 secs by Fluo-4 dye-based FLIPR assay; type: functional, cell-based
T1 sequence (P11229 whole entry): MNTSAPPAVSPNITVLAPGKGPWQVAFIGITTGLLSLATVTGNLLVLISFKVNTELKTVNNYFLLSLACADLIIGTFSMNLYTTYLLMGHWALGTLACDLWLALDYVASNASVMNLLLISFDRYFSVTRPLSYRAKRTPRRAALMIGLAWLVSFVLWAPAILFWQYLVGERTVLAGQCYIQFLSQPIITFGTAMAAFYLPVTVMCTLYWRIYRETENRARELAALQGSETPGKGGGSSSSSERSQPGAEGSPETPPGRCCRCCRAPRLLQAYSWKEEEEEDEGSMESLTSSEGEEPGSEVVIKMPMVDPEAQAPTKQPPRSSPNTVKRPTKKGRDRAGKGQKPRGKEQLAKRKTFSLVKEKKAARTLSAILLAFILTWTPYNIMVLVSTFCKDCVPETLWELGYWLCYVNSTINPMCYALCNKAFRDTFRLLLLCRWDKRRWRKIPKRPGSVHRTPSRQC

[6] = Drug level in rat liver microsomes treated with N-((3R,4S)-3-hydroxytetrahydro-2H-pyran-4-yl)-5-methyl-1-(4-(1-methyl-1H-pyrazol-3-yl)benzyl)-1H-pyrrolo[3,2-b]pyridine-3-carboxamide at 20 uM after 70 mins by UHPLC-UV-HRMS analysis; type: ADME, microsome
[7] = Intrinsic clearance in human liver microsomes; type: ADME, microsome; conditions: read-out: CLH
MDR1 = assay: Efflux ratio of permeability in MDCK cells expressing MDR1; type: ADME, cell-based, Canis lupus familiaris; conditions: dog
[8] = Drug level in rabbit liver microsomes treated with 4-(4-(1H-pyrazol-1-yl)benzyl)-N-((3R,4S)-3-hydroxytetrahydro-2H-pyran-4-yl)-5-methylpicolinamide at 20 uM after 60 mins by UHPLC-UV-HRMS analysis; type: ADME, Oryctolagus cuniculus, microsome
[9] = Drug level in guinea pig liver microsomes treated with 1-(4-(1H-pyrazol-1-yl)benzyl)-N-((1S,2S)-2-hydroxycyclohexyl)-1H-pyrrolo[3,2-b]pyridine-3-carboxamide at 20 uM after 75 mins by UHPLC-UV-HRMS analysis; type: ADME, Cavia porcellus, microsome; conditions: 1.25 h
[10] = Drug level in rabbit liver microsomes treated with 5-(4-(1H-pyrazol-1-yl)benzyl)-N-((1S,2S)-2-hydroxycyclohexyl)-1,6-dimethyl-2-oxo-1,2-dihydropyridine-3-carboxamide at 20 uM after 60 mins by UHPLC-UV-HRMS analysis; type: ADME, Oryctolagus cuniculus, microsome
[11] = Drug metabolism in rabbit liver microsomes assessed as formation of 5-(4-(1H-pyrazol-1-yl)benzyl)-N-((1S,2S)-2-hydroxycyclohexyl)-6-(hydroxymethyl)-1-methyl-2-oxo-1,2-dihydropyridine-3-carboxamide at 20 uM after 60 mins by UHPLC-UV-HRMS analysis; type: ADME, Oryctolagus cuniculus, microsome
[12] = Drug metabolism in rabbit liver microsomes assessed as formation of 5-(4-(1H-pyrazol-1-yl)benzyl)-N-((1S,2S)-2,4-dihydroxycyclohexyl)-1,6-dimethyl-2-oxo-1,2-dihydropyridine-3-carboxamide at 20 uM after 60 mins by UHPLC-UV-HRMS analysis; type: ADME, Oryctolagus cuniculus, microsome
[13] = Drug metabolism in rabbit liver microsomes assessed as formation of 5-(4-(1H-pyrazol-1-yl)benzyl)-N-((1S,2S)-2,5-dihydroxycyclohexyl)-6-methyl-2-oxo-1,2-dihydropyridine-3-carboxamide at 20 uM after 60 mins by UHPLC-UV-HRMS analysis; type: ADME, Oryctolagus cuniculus, microsome
[14] = Drug metabolism in rabbit liver microsomes assessed as formation of 5-(4-(1H-pyrazol-1-yl)benzyl)-N-((1S,2S)-2,4-dihydroxycyclohexyl)-6-(hydroxymethyl)-1-methyl-2-oxo-1,2-dihydropyridine-3-carboxamide at 20 uM after 60 mins by UHPLC-UV-HRMS analysis; type: ADME, Oryctolagus cuniculus, microsome
[15] = Drug level in dexamethasone-induced rat liver microsomes treated with N-((3R,4S)-3-hydroxytetrahydro-2H-pyran-4-yl)-5-methyl-4-(4-(thiazol-4-yl)benzyl)picolinamide at 20 uM after 60 mins by UHPLC-UV-HRMS analysis; type: ADME, microsome; conditions: 1 h
[16] = Drug metabolism in rabbit liver microsomes assessed as formation of 4-(4-(1H-pyrazol-1-yl)benzyl)-5-(hydroxymethyl)-N-((3R,4S)-3-hydroxytetrahydro-2H-pyran-4-yl)picolinamide at 20 uM after 60 mins by UHPLC-UV-HRMS analysis; type: ADME, Oryctolagus cuniculus, microsome
[17] = Drug metabolism in rabbit liver microsomes assessed as formation of 4-(4-(4-hydroxy-1H-pyrazol-1-yl)benzyl)-N-((3R,4S)-3-hydroxytetrahydro-2H-pyran-4-yl)-5-methylpicolinamide at 20 uM after 60 mins by UHPLC-UV-HRMS analysis; type: ADME, Oryctolagus cuniculus, microsome
[18] = Drug metabolism in rabbit liver microsomes assessed as formation of 4-(4-(1H-pyrazol-1-yl)benzyl)-N-((3R,4S)-2,3-dihydroxytetrahydro-2H-pyran-4-yl)-5-methylpicolinamide at 20 uM after 60 mins by UHPLC-UV-HRMS analysis; type: ADME, Oryctolagus cuniculus, microsome
[19] = Drug metabolism in rabbit liver microsomes assessed as formation of 4-(4-(1H-pyrazol-1-yl)benzyl)-N-((4S,5R)-2,5-dihydroxytetrahydro-2H-pyran-4-yl)-5-methylpicolinamide at 20 uM after 60 mins by UHPLC-UV-HRMS analysis; type: ADME, Oryctolagus cuniculus, microsome
[20] = Drug metabolism in rabbit liver microsomes assessed as formation of 4-((4-(1H-pyrazol-1-yl)phenyl)(hydroxy)methyl)-N-((3R,4S)-3-hydroxytetrahydro-2H-pyran-4-yl)-5-methylpicolinamide at 20 uM after 60 mins by UHPLC-UV-HRMS analysis; type: ADME, Oryctolagus cuniculus, microsome
[21] = Drug metabolism in rabbit liver microsomes assessed as formation of 4-(4-(1H-pyrazol-1-yl)benzyl)-5-methyl-N-((2R,3S)-1,2,5-trihydroxypentan-3-yl)picolinamide at 20 uM after 60 mins by UHPLC-UV-HRMS analysis; type: ADME, Oryctolagus cuniculus, microsome

Cc1ccc2c(n1)c(C(=O)N[C@H]1CCOC[C@@H]1O)cn2Cc1ccc(-c2ccn(C)n2)cc1
Papp [1]: 21 ×10⁻⁶ cm/s

O=C(N[C@H]1CCCC[C@@H]1O)c1cn(Cc2ccc(-n3cccn3)cc2)c2cccnc12
Papp [1]: 16.2 ×10⁻⁶ cm/s

O=C(N[C@H]1CCOC[C@@H]1O)c1cn(Cc2ccc(-c3cc[nH]n3)cc2)c2cccnc12
Drug metabolism [2]: Metabolite_Detected

Cc1cnc(C(=O)N[C@H]2CCOC[C@@H]2O)cc1Cc1ccc(-c2cscn2)cc1
Drug metabolism [3]: Metabolite_Detected
Drug metabolism [4]: Metabolite_Detected

Cn1ccc(-c2ccc(Cn3cc(C(=O)N[C@H]4CCOC[C@@H]4O)c4nc(CO)ccc43)cc2)n1
EC50 [5]: 99 nM
Drug metabolism [6]: Metabolite_Detected

O=C(N[C@H]1CCOC[C@@H]1O)c1cc(Cc2ccc(-n3cccn3)cc2)c(CO)cn1
EC50 [5]: 338 nM
CLint scaled [7]: < 8 mL/min/kg
Papp [1]: 4.6 ×10⁻⁶ cm/s
efflux ratio (MDR1): 15.9
Drug metabolism [8]: Metabolite_Detected

Cn1ccc(-c2ccc(Cn3cc(C(=O)N[C@H]4CC(O)OC[C@@H]4O)c4ncccc43)cc2)n1 (some centres not stated)
EC50 [5]: > 207 nM
Drug metabolism [2]: Metabolite_Detected

Cn1ccc(-c2ccc(Cn3cc(C(=O)N[C@H]4CCOC[C@@H]4O)c4nc(C=O)ccc43)cc2)n1
EC50 [5]: 184 nM
Drug metabolism [6]: Metabolite_Detected

O=C(N[C@H]1CCCC[C@@H]1O)c1cn(Cc2ccc([N+]3([O-])C=CC=N3)cc2)c2cccnc12 (some centres not stated)
EC50 [5]: 34 nM
Drug metabolism [9]: Metabolite_Detected

Cc1cnc(C(=O)N[C@H]2CCOC[C@@H]2O)cc1Cc1ccc(-n2cc(O)cn2)cc1
EC50 [5]: 70 nM
Drug metabolism [8]: Metabolite_Detected

Cn1c(CO)c(Cc2ccc(-n3cccn3)cc2)cc(C(=O)N[C@H]2CCCC[C@@H]2O)c1=O
EC50 [5]: 40 nM
Drug metabolism [10]: Metabolite_Detected

Cc1c(Cc2ccc(-n3cccn3)cc2)cc(C(=O)N[C@H]2CCCC[C@@H]2O)c(=O)n1C
efflux ratio (MDR1): 2.7
Drug metabolism [11]: Metabolite_Detected
Drug metabolism [12]: Metabolite_Detected
Drug metabolism [13]: Metabolite_Detected
Drug metabolism [14]: Metabolite_Detected

Cc1cnc(C(=O)N[C@H]2CC(O)OC[C@@H]2O)cc1Cc1ccc(-n2cccn2)cc1 (some centres not stated)
EC50 [5]: > 3000 nM
Drug metabolism [8]: Metabolite_Detected

Cc1cnc(C(=O)N[C@H]2CCOC(O)[C@@H]2O)cc1Cc1ccc(-n2cccn2)cc1 (some centres not stated)
EC50 [5]: 511 nM
Drug metabolism [8]: Metabolite_Detected

Cc1cnc(C(=O)N[C@@H](CCO)[C@@H](O)CO)cc1Cc1ccc(-n2cccn2)cc1
EC50 [5]: > 300 nM
Drug metabolism [8]: Metabolite_Detected

O=C(N[C@H]1CC(O)CC[C@@H]1O)c1cn(Cc2ccc(-n3cccn3)cc2)c2cccnc12 (some centres not stated)
EC50 [5]: > 72 nM
Drug metabolism [9]: Metabolite_Detected

Cc1cnc(C(=O)N[C@H]2CCOC(O)[C@@H]2O)cc1Cc1ccc(-c2cscn2)cc1 (some centres not stated)
EC50 [5]: 162 nM
Drug metabolism [15]: Metabolite_Detected

Cc1c(Cc2ccc(-n3cccn3)cc2)cc(C(=O)N[C@H]2CCC(O)C[C@@H]2O)c(=O)n1C (some centres not stated)
EC50 [5]: 63 nM
Drug metabolism [10]: Metabolite_Detected

Cc1[nH]c(=O)c(C(=O)N[C@H]2CC(O)CC[C@@H]2O)cc1Cc1ccc(-n2cccn2)cc1 (some centres not stated)
EC50 [5]: 12 nM
Drug metabolism [10]: Metabolite_Detected

O=C(N[C@H]1C(O)CCC[C@@H]1O)c1cn(Cc2ccc(-n3cccn3)cc2)c2cccnc12 (some centres not stated)
EC50 [5]: > 249 nM
Drug metabolism [9]: Metabolite_Detected

Cc1cnc(C(=O)N[C@H]2CCOC[C@@H]2O)cc1Cc1ccc(-n2cccn2)cc1
Drug metabolism [16]: Metabolite_Detected
Drug metabolism [17]: Metabolite_Detected
Drug metabolism [18]: Metabolite_Detected
Drug metabolism [19]: Metabolite_Detected
Drug metabolism [20]: Metabolite_Detected
Drug metabolism [21]: Metabolite_Detected

Cn1c(CO)c(Cc2ccc(-n3cccn3)cc2)cc(C(=O)N[C@H]2CCC(O)C[C@@H]2O)c1=O (some centres not stated)
EC50 [5]: 177 nM
Drug metabolism [10]: Metabolite_Detected

Cn1ccc(-c2ccc(Cn3cc(C(=O)N[C@H]4CCOC(O)[C@@H]4O)c4ncccc43)cc2)n1 (some centres not stated)
EC50 [5]: > 257 nM
Drug metabolism [2]: Metabolite_Detected

Cc1cnc(C(=O)N[C@H]2CCOC[C@@H]2O)cc1C(O)c1ccc(-n2cccn2)cc1 (stereo in doubt; 11a)
EC50 [5]: > 1000 nM
Drug metabolism [8]: Metabolite_Detected

Cc1cnc(C(=O)N[C@H]2CCOC[C@@H]2O)cc1C(O)c1ccc(-n2cccn2)cc1 (stereo in doubt; 11b)
EC50 ([5]; cho): > 1000 nM

Cc1cnc(C(=O)N[C@H]2CCOC[C@@H]2O)cc1C(O)c1ccc(-c2cscn2)cc1 (stereo in doubt; 14a)
EC50 [5]: > 4150 nM
Drug metabolism [15]: Metabolite_Detected

Cc1cnc(C(=O)N[C@H]2CCOC[C@@H]2O)cc1C(O)c1ccc(-c2cscn2)cc1 (stereo in doubt; 14b)
EC50 [5]: > 1100 nM

O=C(N[C@H]1CCC(O)C[C@@H]1O)c1cn(Cc2ccc(-n3cccn3)cc2)c2cccnc12 (stereo in doubt; 20a)
EC50 [5]: 167 nM
Drug metabolism [9]: Metabolite_Detected

O=C(N[C@H]1CCC(O)C[C@@H]1O)c1cn(Cc2ccc(-n3cccn3)cc2)c2cccnc12 (stereo in doubt; 20b)
EC50 [5]: 16 nM
